Consider 22 compounds from patent US20160176867A1, “MODIFIED BET-PROTEIN-INHIBITING DIHYDROQUINOXALINONES AND DIHYDROPYRIDOPYRAZINONES” (BAYER PHARMA AKTIENGESELLSCHAFT, priority 2013, published 2016).

Experiment [1] addresses T1, BRD4 bromo domain 2 [BRD4(2)] (Homo sapiens, UniProt O60885).
T1 construct: N-terminally His6-tagged BRD4(2) (amino acids 357-445); made in house; host or cells: E. coli
In words: BRD4/acetylated peptide H4 binding assay (TR-FRET), BRD4 bromo domain 2. Conditions: inhibition of BRD4(2)/Ac-H4 peptide interaction. The gist of the method:
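IC50 comes from a 4-parameter fit over 0.1 nM–20 μM in duplicate, normalised to DMSO and no-protein controls. TR-FRET (Eu-streptavidin/anti-His-XL665) tracks His-tagged BRD4(2) 357-445 at 100 nM binding Ac-H4 peptide in HEPES pH 7.5 buffer. Incubation was 1 h at 22 °C, then at 4 °C ≥3 h up to overnight.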

Experiment [2] addresses T2, BRD4 bromo domain 1 [BRD4(1)] (Homo sapiens, UniProt O60885).
T2 construct: N-terminally His6-tagged BRD4(1) (amino acids 67-152); made in house; host or cells: E. coli
As to the kind of experiment: BRD4/acetylated peptide H4 binding assay (TR-FRET), BRD4 bromo domain 1. Conditions: inhibition of BRD4(1)/Ac-H4 peptide interaction. In outline: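 TR-FRET (665/620 nm ratio) measuring displacement of biotinylated tetra-acetylated H4 peptide from His6-BRD4(1) (aa 67-152, E. coli; typically 10 nM) at pH 7.5. Compound (11 concentrations, 0.1 nM–20 μM, duplicates) was preincubated 10 min at 22°C, then 1 h at 22°C and ≥3 h at 4°C; IC50 from 4-parameter fit normalized to DMSO and no-BRD4 controls.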

With `COc1ccc(Nc2ccc3c(n2)N(C2CCOCC2)[C@H](C)C(=O)N3C)cc1C(=O)N[C@H]1CC[C@H](N2CCN(CC3CC3)CC2)CC1` [Example 82, N-{trans-4-[4-(cyclo-propylmethyl)piperazin-1-yl]cyclohexyl}-5-{[(3R)-1,3-dimethyl-2-oxo-4-(tetrahydro-2H-pyran-4-yl)-1,2,3,4-tetrahydropyrido[2,3-b]pyrazin-6-yl]amino}-2-methoxybenzamide], the IC50 in experiment [1] is 337 nM; in experiment [2], 218 nM.

`COc1ccc(Nc2ccc3c(n2)N(C2CCOCC2)[C@H](C)C(=O)N3C)cc1C(=O)N1CCN(C)CC1` [Example 83, (3R)-6-({4-methoxy-3-[(4-methylpiperazin-1-yl)carbonyl]phenyl}-amino)-1,3-dimethyl-4-(tetrahydro-2H-pyran-4-yl)-3,4-dihydropyrido[2,3-b]pyrazin-2(1H)-one]: the values for the IC50 in experiment [1] and in experiment [2] were 227 nM and 218 nM, respectively.

As to `C[C@@H]1C(=O)N(C)c2ccc(Nc3cccc(C(=O)NCCN4CCN(C)CC4)c3)nc2N1C1CCCCC1` [Example 84, 3-{[(3R)-4-cyclohexyl-1,3-dimethyl-2-oxo-1,2,3,4-tetrahydropyrido[2,3-b]pyrazin-6-yl]amino}-N-[2-(4-methlpiperazin-1-yl)ethyl]benzamide], the half-inhibitory concentration (IC50) in experiment [1] came out at 155 nM; in experiment [2] it was 268 nM.

As for `CC(C)N1CCN(C(=O)c2cccc(Nc3ccc4c(n3)N(C3CCCCC3)[C@H](C)C(=O)N4C)c2)CC1` [Example 85], the results for the 50% inhibitory concentration (IC50) in experiment [1] and in experiment [2] were 189 nM and 314 nM, respectively.

As to `C[C@@H]1C(=O)N(C)c2ccc(Nc3cccc(C(=O)NC4CCC(O)CC4)c3)nc2N1C1CCCCC1` (stereo partly drawn) [Example 86, 3-{[(3R)-4-cyclohexyl-1,3-dimethyl-2-oxo-1,2,3,4-tetrahydropyrido[2,3-b]pyrazin-6-yl]amino}-N-(4-hydroxycyclohexyl)-benzamide], the IC50 in experiment [1] is 127 nM; in experiment [2], 322 nM.

As to `COc1ccc(Nc2ccc3c(n2)N(C2CCOCC2)[C@H](C)C(=O)N3C)cc1C(=O)NC1CCC(N2CCC(F)(F)CC2)CC1` (some centres unmarked) [Example 89], the IC50 in experiment [1] was found to be 497 nM; in experiment [2], 399 nM.

With `COc1ccc(C(=O)N[C@H]2CC[C@@H](N3CCN(C4CC4)CC3)CC2)cc1Nc1ccc2c(n1)N(C1CCOCC1)[C@H](C)C(=O)N2C` [Example 90, N-[cis-4-(4-cyclopropylpiperazin-1-yl)cyclohexyl]-3-{[(3R)-1,3-dimethyl-2-oxo-4-(tetrahydro-2H-pyran-4-yl)-1,2,3,4-tetrahydropyrido[2,3-b]pyrazin-6-yl]amino}-4-methoxybenzamide], the concentration for half-maximal inhibition (IC50) in experiment [1] came out at 332 nM; in experiment [2] it was 430 nM.

Turning to `COc1c(Nc2ccc3c(n2)N(C2CCOCC2)[C@H](C)C(=O)N3C)cccc1C(=O)N[C@H]1CC[C@H](N2CCN(CC3CC3)CC2)CC1` [Example 91, N-{trans-4-[4-(cyclo-propylmethyl)piperazin-1-yl]cyclohexyl}-3-{[(3R)-1,3-dimethyl-2-oxo-4-(tetrahydro-2H-pyran-4-yl)-1,2,3,4-tetrahydropyrido[2,3-b]pyrazin-6-yl]amino}-2-methoxybenzamide], the half-maximal inhibitory concentration (IC50) in experiment [1] amounted to 325 nM; in experiment [2], 439 nM.

In the case of `COc1c(Nc2ccc3c(n2)N(C2CCOCC2)[C@H](C)C(=O)N3C)cccc1C(=O)N1CCN(C)CC1` [Example 92, (3R)-6-({2-methoxy-3-[(4-methylpiperazin-1-yl)carbonyl]phenyl}-amino)-1,3-dimethyl-4-(tetrahydro-2H-pyran-4-yl)-3,4-dihydropyrido[2,3-b]pyrazin-2(1H)-one], the IC50 in experiment [1] was found to be 579 nM; in experiment [2] it was 452 nM.

In the case of `CC(C)N1c2nc(Nc3cccc(C(=O)NC4CCN(C)CC4)c3)ccc2N(C)C(=O)[C@H]1C` [Example 94, 3-{[(3R)-4-isopropyl-1,3-dimethyl-2-oxo-1,2,3,4-tetrahydropyrido[2,3-b]pyrazin-6-yl]amino}-N-(1-methylpiperidin-4-yl)benzamide], the 50% inhibitory concentration (IC50) in experiment [1] turned out to be 115 nM; in experiment [2], 467 nM.

As to `C[C@@H]1C(=O)N(C)c2ccc(Nc3cccc(C(=O)NC4CCN(C)CC4)c3)nc2N1C1CCCCC1` [Example 95, 3-{[(3R)-4-cyclohexyl-1,3-dimethyl-2-oxo-1,2,3,4-tetrahydropyrido[2,3-b]pyrazin-6-yl]amino}-N-(1-methylpiperidin-4-yl)benzamide], the 50% inhibitory concentration (IC50) was determined as 277 nM in experiment [1] and 475 nM in experiment [2].

On to `C[C@@H]1C(=O)N(C)c2ccc(Nc3cccc(C(=O)NC4CCN(C)CC4)c3)nc2N1C1CCC(C)(C)CC1` [Example 96, 3-{[(3R)-4-(4,4-dimethylcyclohexyl)-1,3-dimethyl-2-oxo-1,2,3,4-tetrahydropyrido[2,3-b]pyrazin-6-yl]amino}-N-(1-methylpiperidin-4-yl)benzamide], for which the half-maximal inhibitory concentration (IC50) in experiment [1] was determined as 573 nM; in experiment [2], 501 nM.

As to `CC(C)N1c2nc(Nc3cccc(C(=O)NCCN(C)C)c3)ccc2N(C)C(=O)[C@H]1C` [Example 97, N-[2-(dimethylamino)ethyl]-3-{[(3R)-4-isopropyl-1,3-dimethyl-2-oxo-1,2,3,4-tetrahydropyrido[2,3-b]pyrazin-6-yl]amino}benzamide], the IC50 in experiment [1] worked out at 179 nM; in experiment [2], 503 nM.

In the case of `C[C@@H]1C(=O)N(C)c2ccc(Nc3cccc(C(=O)N[C@H]4CC[C@H](N5CCN(CC6CC6)CC5)CC4)c3)nc2N1C1CCCCC1` [Example 99, 3-{[(3R)-4-cyclohexyl-1,3-dimethyl-2-oxo-1,2,3,4-tetrahydropyrido[2,3-b]pyrazin-6-yl]amino}-N-{trans-4-[4-(cyclopropyl-methyl)piperazin-1-yl]cyclohexyl}benzamide], the half-maximal inhibitory concentration (IC50) in experiment [1] was found to be 274 nM; in experiment [2], 551 nM.

On to `C[C@@H]1C(=O)N(C)c2ccc(Nc3cccc(C(=O)NC4CCN(C)CC4)c3)nc2N1C1CCN(C(=O)OC(C)(C)C)CC1` [Example 100, tert-butyl 4-[(3R)-1,3-dimethyl-6-({3-[(1-methylpiperidin-4-yl)carbamoyl]phenyl}amino)-2-oxo-2,3-dihydropyrido[2,3-b]pyrazin-4(1H)-yl]piperidine-1-carboxylate], for which the results for the half-maximal inhibitory concentration (IC50) in experiment [1] and in experiment [2] were 462 nM and 555 nM, respectively.

Take `COCCN1c2nc(Nc3cccc(C(=O)N[C@H]4CC[C@H](N5CCN(CC6CC6)CC5)CC4)c3)ccc2N(C)C(=O)[C@H]1C` [Example 101, N-{trans-4-[4-(cyclopropylmethyl)piperazin-1-yl]cyclohexyl}-3-{[(3R)-4-(2-methoxyethyl)-1,3-dimethyl-2-oxo-1,2,3,4-tetrahydropyrido-[2,3-b]pyrazin-6-yl]amino}benzamide]: the half-maximal inhibitory concentration (IC50) in experiment [1] turned out to be 195 nM; in experiment [2] it was 617 nM.

For `C[C@@H]1C(=O)N(C)c2ccc(Nc3cccc(C(=O)N[C@H]4CC[C@H](N5CCN(CC6CC6)CC5)CC4)c3)nc2N1C1CCN(C(=O)OC(C)(C)C)CC1` [Example 102, tert-butyl 4-[(3R)-6-{[3-({trans-4-[4-(cyclopropl-methyl)piperazin-1-yl]cyclohexyl}carbamoyl)phenyl]amino}-1,3-dimethyl-2-oxo-2,3-dihydropyrido[2,3-b]pyrazin-4(1H)-yl]piperidine-1-carboxylate], the 50% inhibitory concentration (IC50) in experiment [1] came to 687 nM; in experiment [2] it was 788 nM.

Regarding `COc1c(Nc2ccc3c(n2)N(C2CCOCC2)[C@H](C)C(=O)N3C)cccc1C(=O)NC1CCN(C)CC1` [Example 103, 3-{[(3R)-1,3-dimethyl-2-oxo-4-(tetrahydro-2H-pyran-4-yl)-1,2,3,4-tetrahydropyrido[2,3-b]pyrazin-6-yl]amino}-2-methoxy-N-(1-melhylpiperidin-4-yl)benzamide], the 50% inhibitory concentration (IC50) in experiment [1] came out at 518 nM; in experiment [2] it was 810 nM.

For the compound `C[C@@H]1C(=O)N(C)c2ccc(Nc3cccc(C(=O)N(C)C)c3)cc2N1C1CCN(C(=O)OC(C)(C)C)CC1` [Example 105, tert-butyl 4-[(2R)-7-{[3-(dimethylcarbamoyl)phenyl]amino}-2,4-dimethyl-3-oxo-3,4-dihydroquinoxalin-1(2H)-yl]piperidine-1-carboxylate], the IC50 was determined as 598 nM in experiment [1] and 208 nM in experiment [2].

For the compound `C[C@@H]1C(=O)N(C)c2ccc(Nc3cccc(C(=O)N4CCN(C)CC4)c3)cc2N1C1CCOCC1` [Example 106, (3R)-1,3-dimethyl-6-({3-[(4-methylpiperazin-1-yl)carbonyl]phenyl}amino)-4-(tetrahydro-2H-pyran-4-yl)-3,4-dihydroquinoxalin-2(1H)-one], the half-inhibitory concentration (IC50) in experiment [1] amounted to 817 nM; in experiment [2], 357 nM.

Consider `C[C@@H]1C(=O)N(C)c2ccc(Nc3cccc(C(=O)N(C)C)c3)cc2N1Cc1ccccc1` [Example 107, 3-{[(3R)-4-benzyl-1,3-dimethyl-2-oxo-1,2,3,4-tetrahydroquinoxalin-6-yl]amino}-N,N-dimethylbenzamide], for which the IC50 in experiment [1] is 117 nM; in experiment [2], 385 nM.

For the compound `C[C@@H]1C(=O)N(C)c2ccc(Nc3cccc(C(=O)N[C@H]4CC[C@H](N5CCN(CC6CC6)CC5)CC4)c3)cc2N1C1CCOCC1` [Example 108, N-{trans-4-[4-(cyclopropylmethyl)piperazin-1-yl]cyclohexyl}-3-{[(3R)-1,3-dimethyl-2-oxo-4-(tetrahydro-2H-pyran-4-yl)-1,2,3,4-tetrahydroquinoxalin-6-yl]amino}benzamide], the half-maximal inhibitory concentration (IC50) in experiment [1] amounted to 520 nM; in experiment [2] it was 575 nM.
